# According to the supplement of paper PMC10307832:
# Key:
# Assay in all cases: relative viability (nuclei count vs DMSO), 5 days (fraction); higher = more cells survive
# Idelalisib + Phenformin = compound: CC[C@H](Nc1ncnc2[nH]cnc12)c1nc2cccc(F)c2c(=O)n1-c1ccccc1 [Idelalisib] + N=C(N)NC(=N)NCCc1ccccc1 [Phenformin] (partner 250 µM)
# How it was run: (§1)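 Five library-drug doses in √10 steps were combined with a fixed anchor-drug dose, or a single drug was given alone, by pin tool to lung cancer cell lines in 1536-well plates the day after seeding. Nuclei were stained and counted after 5 days. Relative viability is the nuclei count in treated wells over that in vehicle wells, taken as the median of duplicate plates.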
# Idelalisib + Decitabine = compound: CC[C@H](Nc1ncnc2[nH]cnc12)c1nc2cccc(F)c2c(=O)n1-c1ccccc1 [Idelalisib] + Nc1ncn([C@H]2C[C@H](O)[C@@H](CO)O2)c(=O)n1 [Decitabine] (partner 2 µM)
# How it was run: as §1
# Pemetrexed + Linsitinib = compound: Nc1nc2[nH]cc(CCc3ccc(C(=O)N[C@@H](CCC(=O)O)C(=O)O)cc3)c2c(=O)[nH]1 [Pemetrexed] + C[C@]1(O)C[C@@H](c2nc(-c3ccc4ccc(-c5ccccc5)nc4c3)c3c(N)nccn32)C1 [Linsitinib] (partner 1 µM)
# How it was run: as §1
# Idelalisib + Trametinib = compound: CC[C@H](Nc1ncnc2[nH]cnc12)c1nc2cccc(F)c2c(=O)n1-c1ccccc1 [Idelalisib] + CC(=O)Nc1cccc(-n2c(=O)n(C3CC3)c(=O)c3c(Nc4ccc(I)cc4F)n(C)c(=O)c(C)c32)c1 [Trametinib] (partner 0.02 µM)
# How it was run: as §1
Cell Line,relative viability (Idelalisib + Phenformin; first compound 0.04 µM),relative viability (Idelalisib + Phenformin; first compound 0.1265 µM),relative viability (Idelalisib + Phenformin; first compound 0.4 µM),relative viability (Idelalisib + Phenformin; first compound 1.265 µM),relative viability (Idelalisib + Phenformin; first compound 4 µM),relative viability (Idelalisib + Decitabine; first compound 0.04 µM),relative viability (Idelalisib + Decitabine; first compound 0.1265 µM),relative viability (Idelalisib + Decitabine; first compound 0.4 µM),relative viability (Idelalisib + Decitabine; first compound 1.265 µM),relative viability (Idelalisib + Decitabine; first compound 4 µM),relative viability (Pemetrexed + Linsitinib; first compound 0.002 µM),relative viability (Pemetrexed + Linsitinib; first compound 0.006325 µM),relative viability (Pemetrexed + Linsitinib; first compound 0.02 µM),relative viability (Pemetrexed + Linsitinib; first compound 0.06325 µM),relative viability (Pemetrexed + Linsitinib; first compound 0.2 µM),relative viability (Idelalisib + Trametinib; first compound 0.04 µM),relative viability (Idelalisib + Trametinib; first compound 0.1265 µM),relative viability (Idelalisib + Trametinib; first compound 0.4 µM),relative viability (Idelalisib + Trametinib; first compound 1.265 µM),relative viability (Idelalisib + Trametinib; first compound 4 µM)
LCLC-97TM1,0.43,0.434,0.267,0.592,0.453,0.254,0.223,0.269,0.262,0.226,0.151,0.152,0.184,0.133,0.174,0.194,0.21,0.216,0.228,0.163
LCLC-103H,0.367,0.312,0.275,0.33,0.314,0.693,0.707,0.692,0.795,0.679,1.07,1.03,1.14,1.16,0.992,0.659,0.607,0.664,0.63,0.64
LK-2,0.477,0.407,–,0.536,0.384,0.357,0.239,–,0.407,0.343,0.339,0.307,0.514,0.448,0.341,0.87,0.651,0.503,0.588,0.704
LOU-NH91,0.712,0.725,0.573,0.492,0.643,0.789,0.84,0.79,0.78,0.816,0.888,0.852,0.987,0.688,0.598,0.85,0.803,0.718,0.751,0.781
LU99A,1.06,0.836,0.737,0.988,1.01,0.876,0.843,0.777,1.02,0.914,0.501,0.496,0.634,0.44,0.345,0.6,0.539,0.546,0.542,0.502
LXF-289,0.506,0.518,0.46,0.534,0.496,0.438,0.402,0.368,0.438,0.395,0.917,0.994,0.976,0.955,0.931,0.694,0.706,0.655,0.721,0.734
NCI-H23,0.713,0.845,0.792,–,0.776,0.331,0.339,0.309,0.313,0.329,0.602,0.513,0.607,0.549,0.589,0.462,0.38,0.281,0.399,0.312
NCI-H322M,0.901,0.846,0.66,0.741,0.735,0.712,0.69,0.613,0.664,0.746,0.967,0.778,1.06,0.938,0.809,0.58,0.57,0.479,0.505,0.537
NCI-H358,0.386,0.327,0.225,0.338,0.313,0.237,0.216,0.191,0.202,0.21,0.641,0.666,0.514,0.261,0.282,0.191,0.146,0.149,0.129,0.148
NCI-H441,0.803,0.919,0.639,0.885,0.898,0.313,0.235,–,0.267,0.187,0.553,0.572,0.454,0.414,0.269,0.437,0.484,–,0.615,0.396
NCI-H460,0.643,0.516,0.438,0.503,0.515,0.382,0.562,0.448,0.466,0.503,0.75,0.697,0.782,0.166,0.0543,0.218,0.194,0.139,0.131,0.113
NCI-H520,0.513,0.585,0.466,0.451,0.397,0.506,0.386,0.45,0.502,0.431,0.946,0.911,0.926,1.09,0.956,0.793,0.566,0.479,0.628,0.613
NCI-H596,0.75,0.765,0.689,0.731,0.616,0.994,0.962,1.06,1.15,0.887,1.08,0.983,1.04,0.908,0.54,0.756,0.82,0.782,0.878,0.592
NCI-H647,0.673,0.498,–,0.38,0.299,0.332,0.408,0.3,0.318,0.193,–,0.886,1.29,1.08,0.332,0.431,0.485,0.423,0.354,0.239
NCI-H650,0.519,0.429,0.446,0.487,0.457,0.345,0.324,0.344,0.348,0.28,0.651,0.983,1.1,0.944,0.839,1.08,0.928,0.888,1.09,0.848
NCI-H661,0.271,0.256,0.256,0.269,0.281,0.616,0.583,0.543,0.6,0.542,0.632,0.515,0.637,0.505,0.561,0.585,0.579,0.535,0.618,0.502

Cell Line,relative viability (Idelalisib + Phenformin; first compound 0.04 µM),relative viability (Idelalisib + Phenformin; first compound 0.1265 µM),relative viability (Idelalisib + Phenformin; first compound 0.4 µM),relative viability (Idelalisib + Phenformin; first compound 1.265 µM),relative viability (Idelalisib + Phenformin; first compound 4 µM),relative viability (Idelalisib + Decitabine; first compound 0.04 µM),relative viability (Idelalisib + Decitabine; first compound 0.1265 µM),relative viability (Idelalisib + Decitabine; first compound 0.4 µM),relative viability (Idelalisib + Decitabine; first compound 1.265 µM),relative viability (Idelalisib + Decitabine; first compound 4 µM),relative viability (Pemetrexed + Linsitinib; first compound 0.002 µM),relative viability (Pemetrexed + Linsitinib; first compound 0.006325 µM),relative viability (Pemetrexed + Linsitinib; first compound 0.02 µM),relative viability (Pemetrexed + Linsitinib; first compound 0.06325 µM),relative viability (Pemetrexed + Linsitinib; first compound 0.2 µM),relative viability (Idelalisib + Trametinib; first compound 0.04 µM),relative viability (Idelalisib + Trametinib; first compound 0.1265 µM),relative viability (Idelalisib + Trametinib; first compound 0.4 µM),relative viability (Idelalisib + Trametinib; first compound 1.265 µM),relative viability (Idelalisib + Trametinib; first compound 4 µM)
NCI-H727,0.582,0.56,–,0.607,0.448,1.03,0.747,0.867,0.881,0.889,0.154,0.272,0.218,0.332,0.264,0.423,0.457,0.34,0.394,0.387
NCI-H838,0.61,0.668,0.405,0.607,0.405,0.467,0.44,0.478,0.563,0.464,0.97,0.915,1.21,0.791,0.309,0.53,0.551,0.432,0.511,0.372
NCI-H1355,0.476,0.502,0.364,0.448,0.411,0.346,0.326,0.364,0.369,0.324,0.8,0.801,0.824,0.881,0.72,0.305,0.38,0.41,0.467,0.284
NCI-H1395,0.476,0.421,0.423,0.445,0.439,0.724,0.657,0.726,0.712,0.607,0.99,0.975,1.1,1.1,0.998,1.12,1,0.965,1.07,0.844
NCI-H1437,0.309,0.306,0.297,0.361,0.247,0.55,0.59,0.62,0.635,0.55,0.898,0.965,0.967,0.49,0.252,0.561,0.547,0.461,0.545,0.354
NCI-H1651,0.35,0.372,0.258,0.322,0.321,0.717,0.374,0.611,0.578,0.651,0.995,0.977,0.987,0.903,0.895,0.825,0.85,0.815,0.844,0.814
NCI-H1666,0.618,0.57,0.539,0.583,0.546,0.801,0.587,0.743,0.761,0.701,0.71,0.774,0.829,0.73,0.615,0.806,0.931,0.815,0.803,0.831
NCI-H1734,0.455,0.446,0.344,0.377,0.377,0.522,0.461,0.497,0.518,0.496,0.909,0.818,0.971,0.861,0.718,0.696,0.697,0.546,0.69,0.556
NCI-H1755,0.633,0.601,0.558,0.675,0.531,0.724,0.637,0.729,0.7,0.803,0.883,0.966,1.02,0.988,0.951,0.764,0.773,0.745,0.674,0.732
NCI-H1792,0.335,0.182,–,0.225,0.208,0.505,0.599,0.514,0.558,0.472,0.499,0.532,0.57,0.469,0.519,0.487,0.522,0.271,0.56,0.267
NCI-H1793,0.388,0.369,0.288,0.335,0.224,0.404,0.398,–,0.454,0.38,0.862,0.722,0.676,0.841,0.779,0.431,0.467,–,0.475,0.383
NCI-H1915,0.387,0.36,0.364,0.381,0.372,0.256,0.249,0.269,0.253,0.256,1.11,1.08,1.13,1.11,1.07,0.281,0.291,0.291,0.317,0.265
NCI-H1944,0.237,0.204,0.158,0.187,0.175,0.468,0.452,0.433,0.431,0.429,1.09,1.02,1.17,1.19,1.21,0.448,0.354,0.336,0.352,0.318
NCI-H1975,0.426,0.418,0.369,0.408,0.357,0.393,0.374,0.373,0.383,0.381,–,0.904,1.06,0.793,0.526,0.328,0.382,0.37,0.375,0.288
NCI-H1993,0.57,0.484,0.554,0.59,0.486,0.53,0.584,0.588,0.545,0.501,0.824,0.697,0.815,0.698,0.692,0.688,0.302,0.617,0.547,0.448
NCI-H2009,0.496,0.483,0.474,0.536,0.491,0.4,0.35,0.322,0.405,0.381,0.979,1.1,1.3,1.17,1.11,0.297,0.232,0.201,0.228,0.179
